Results on 19 compounds are retold here after PMC12658631, “Synthesis and Antitrypanosomal Activity of Novel 2‑Nitroimidazole-3,5-Disubstituted Isoxazole Derivatives with Diaryl Ether and Thioether Substituents” (ACS Omega, 2025).

The CC50 is the concentration at which the toxic effect on the cells reaches its halfway point. The IC50 is the midpoint of a concentration-inhibition curve.

The nature of one series: Cytotoxicity assay (MTT). In kind it is cell-based. The conditions noted are these: rhesus monkey, LLC-MK2 cells, read-out: LLC-MK2 CC50 (μM ± SD). Here is the method: (§1) The cytotoxicity evaluation and the determination of the selectivity index (SI) were done on LLC-MK2 cells.
To assess chemical cytotoxicity, MTT (3-(4,5-Dimethyl-2-thiazolyl)-2,5-diphenyl-2H-tetrazolium bromide, Sigma-Aldrich)-based kit reagents were employed. LLC-MK2 cells were incubated in 96-well plates for 48 h at a concentration of 5 × 10^3 cells/well. Cells were then washed twice with PBS (Sigma-Aldrich) before being incubated with compounds in a serial dilution from 200 μM to 1.56 μM in fresh RPMI 1640 medium (Sigma-Aldrich). After 72 h, 50 μL of MTT solution (2.0 mg/mL) was added to each well, and the plates were incubated for another 4 h at 37 °C. The resultant formazan crystals were dissolved in DMSO (50 μ L/well) and measured at 570 nm 30 min later in a Synergy H1 microplate reader. Cytotoxic concentration of 50% (CC50) was calculated based on a dose–response curve excluding DMSO cytotoxicity (>1%) of the untreated control.

The subject of series [1] is T. cruzi intracellular amastigotes (Tulahuen lacZ strain). The series can be described thus: Antitrypanosomal assay, intracellular amastigotes in LLC-MK2 cells, CPRG readout. The class given is cell-based, Trypanosoma cruzi. The conditions noted are these: for IC50: Trypanosoma cruzi, read-out: Amastigote IC50 (μM ± SD); for activity category (active / moderately active / inactive): category by amastigote IC50. Here is the method:
as §1
Initially, 5 × 10^3 LLC-MK2 cells/well were infected with trypomastigotes in 96-well plates at a parasite/cell ratio of 10:1. After 48 h, plates were washed twice with PBS before adding compounds in a serial dilution range of 100 μM to 0.78 μM in fresh RPMI 1640 medium (Sigma-Aldrich). As a control, infected untreated cells (100% infection control) were employed. Following 72 h of incubation, amastigote viability tests were performed using 50 μL of PBS containing 2% Triton X-100 and 200 μM CPRG. Tulahuen lacZ strain expressing galactosidase enzyme were used, which catalyzes the yellow reagent of CPRG into a red chromophore that can be easily detected by absorbance at 570 nm after 4 h at 37 °C (microplate reader – Synergy H1). The percentage of amastigotes inhibition (IC50) was calculated as 100-(absorbance of treated infected cells)/(absorbance mean of untreated infected cells) × 100.

Series [2] concerns T. cruzi amastigote forms. The conditions noted are these: triazole with diphenyl ether substituent; ref Assunção et al.; read-out: IC50 against T. cruzi amastigote forms; cited from earlier work.
Setting [3] is: LLC-MK2, T. cruzi intracellular amastigotes, Tulahuen lacZ strain, 72 h incubation.
Setting [4] is: ratio of amastigote IC50 values.

Molecules are shown by their SMILES. Read-outs that look alike come from different tables or passages of the source.

On to `O=[N+]([O-])c1nccn1Cc1cc(-c2ccc(Oc3ccc(Cl)cc3)cc2)no1` [Compound 6c, 3-(4-(4-Chlorophenoxy)phenyl)-5-((2-nitro-1H-imidazol-1-yl)methyl)isoxazole], for which, in “Cytotoxicity assay (MTT)”, the CC50 at 72 h is > 100 µM. Further, the “SI, selectivity index: CC50 of LLC-MK2 cells/IC50 of intracellular amastigotes” value (shortened to “SI, selectivity index: CC50”) in series [1] was >99.0. For the same compound, the IC50 in series [1] (setting [3]) worked out at 1.01 ± 1.13 µM. Besides, in series [1] (setting [4]), the “fold less active than 6b” value turned out to be 2 fold.

For `Cc1ccc(Oc2ccc(-c3cc(Cn4ccnc4[N+](=O)[O-])on3)cc2)cc1` [Compound 6f, 5-((2-Nitro-1H-imidazol-1-yl)methyl)-3-(4-(P-tolyloxy)phenyl)isoxazole], the CC50 at 72 h in “Cytotoxicity assay (MTT)” is > 100 µM. In series [1], the “SI, selectivity index: CC50” value was >56.5. In series [1] (setting [3]), the IC50 was determined as 1.77 ± 0.24 µM.

In the case of `O=C(Cn1ccnc1[N+](=O)[O-])NCc1ccccc1` [BZN, benznidazole, reference compound], the CC50 at 72 h in the series “Cytotoxicity assay (MTT)” was > 100 µM. In series [1], the “SI, selectivity index: CC50” value is reported as >17.6. Also, the IC50 in series [1] (setting [3]) was 5.67 ± 0.83 µM.

Regarding `O=[N+]([O-])c1nccn1Cc1cc(-c2ccc(Oc3ccc(F)cc3)cc2)no1` [Compound 6b, 3-(4-(4-Fluorophenoxy)phenyl)-5-((2-nitro-1H-imidazol-1-yl)methyl)isoxazole], in “Cytotoxicity assay (MTT)”, the CC50 at 72 h is > 100 µM. The “SI, selectivity index: CC50” value in series [1] is reported as >199.4. In addition, the IC50 in series [1] (setting [3]) was found to be 0.5 ± 0.51 µM.

With `Cc1ccc(Oc2ccc(-c3cc(Cn4ccnc4[N+](=O)[O-])on3)cc2F)cc1` [Compound 6m, 3-(3-Fluoro-4-(P-tolyloxy)phenyl)-5-((2-nitro-1H-imidazol-1-yl)methyl)isoxazole], in the series “Cytotoxicity assay (MTT)”, the CC50 at 72 h was > 100 µM. For the same compound, the “SI, selectivity index: CC50” value in series [1] is on record as >13.5. The IC50 in series [1] (setting [3]) was found to be 7.41 ± 3.22 µM. In series [1] (setting [4]), the “fold less active than 6f” value was determined as 4 fold.

For `O=[N+]([O-])c1nccn1Cc1cc(-c2ccc(Oc3ccccc3)cc2)no1` [Compound 6a, 5-((2-Nitro-1H-imidazol-1-yl)methyl)-3-(4-phenoxyphenyl)isoxazole], in “Cytotoxicity assay (MTT)”, the CC50 at 72 h was > 100 µM. Besides, the “SI, selectivity index: CC50” value in series [1] is listed as >82.2. Moreover, in series [1] (setting [3]), the IC50 turned out to be 1.22 ± 0.73 µM. The “fold more active than the reference drug benznidazole (BZN)” value in series [1] (setting [4]) was 4.6 fold. Also, the “fold more active against amastigote forms than its triazole analog” value in series [1] (ratio of amastigote IC50 values, comparator is a literature value) came to 5.4 fold.

On to `O=[N+]([O-])c1nccn1Cc1cc(-c2ccc(Sc3ccc(Cl)cc3)cc2)no1` [Compound 6p, 3-(4-((4-Chlorophenyl)thio)phenyl)-5-((2-nitro-1H-imidazol-1-yl)methyl)isoxazole], for which the CC50 at 72 h in “Cytotoxicity assay (MTT)” is > 100 µM. The “SI, selectivity index: CC50” value in series [1] is listed as >9.0. Moreover, the IC50 in series [1] (setting [3]) amounted to 11.1 ± 0.16 µM.

With `O=[N+]([O-])c1nccn1Cc1cc(-c2ccc(Oc3ccc(OC(F)(F)F)cc3)cc2)no1` [Compound 6e, 5-((2-Nitro-1H-imidazol-1-yl)methyl)-3-(4-(4-(trifluoromethoxy)phenoxy)phenyl)isoxazole], the CC50 at 72 h in the series “Cytotoxicity assay (MTT)” is > 100 µM. The “SI, selectivity index: CC50” value in series [1] is >80.1. Moreover, the IC50 in series [1] (setting [3]) was found to be 1.25 ± 0.71 µM.

Regarding `O=[N+]([O-])c1nccn1Cc1cc(-c2ccc(Oc3ccc(OC(F)(F)F)cc3)c(F)c2)no1` [Compound 6l, 3-(3-Fluoro-4-(4-(trifluoromethoxy)phenoxy)phenyl)-5-((2-nitro-1H-imidazol-1Yl)methyl)isoxazole], in series [1], the “SI, selectivity index: CC50” value is reported as >14.7. Moreover, in series [1] (TULAHUEN, LLC-MK2, 72 h), the IC50 is 3.77 ± 0.07 µM.

For the compound `O=[N+]([O-])c1nccn1Cc1cc(-c2ccc(Oc3ccc(Cl)cc3)c(F)c2)no1` [Compound 6j, 3-(4-(4-Chlorophenoxy)-3-fluorophenyl)-5-((2-nitro-1H-imidazol-1-yl)methyl)isoxazole], in the series “Cytotoxicity assay (MTT)”, the cytotoxic concentration (CC50) at 72 h is > 100 µM. The “SI, selectivity index: CC50” value in series [1] is reported as >64.1. The IC50 in series [1] (setting [3]) turned out to be 1.56 ± 0.69 µM.

Regarding `O=[N+]([O-])c1nccn1Cc1cc(-c2ccc(Oc3ccc(Cl)c(Cl)c3)c(F)c2)no1` [Compound 6k, 3-(4-(3,4-Dichlorophenoxy)-3-fluorophenyl)-5-((2-nitro-1H-imidazol-1-yl)methyl)isoxazole], the CC50 at 72 h in the series “Cytotoxicity assay (MTT)” was > 100 µM. For the same compound, in series [1], the “SI, selectivity index: CC50” value is >11.8 and the “activity category (active / moderately active / inactive)” value was “moderate activity”. Further, the IC50 in series [1] (setting [3]) was 8.5 ± 2.06 µM.

Regarding `Cc1ccc(Sc2ccc(-c3cc(Cn4ccnc4[N+](=O)[O-])on3)cc2)cc1` [Compound 6q, 5-((2-Nitro-1H-imidazol-1-yl)methyl)-3-(4-(P-tolylthio)phenyl)isoxazole], the CC50 at 72 h in “Cytotoxicity assay (MTT)” is > 100 µM. In series [1], the “SI, selectivity index: CC50” value is >5.8 and the “activity category (active / moderately active / inactive)” value is reported as “moderate activity”. The IC50 in series [1] (setting [3]) came to 17.1 ± 0.24 µM.

For `O=[N+]([O-])c1nccn1Cc1cc(-c2ccc(Oc3ccccc3)c(F)c2)no1` [Compound 6h, 3-(3-Fluoro-4-phenoxyphenyl)-5-((2-nitro-1H-imidazol-1-yl)methyl)isoxazole], the CC50 at 72 h in “Cytotoxicity assay (MTT)” is > 100 µM. In series [1], the “SI, selectivity index: CC50” value is recorded as >31.4 and the “activity category (active / moderately active / inactive)” value is “active”. In series [1] (setting [3]), the IC50 was 3.18 ± 2.18 µM.

For the compound `COc1ccc(Oc2ccc(-c3cc(Cn4ccnc4[N+](=O)[O-])on3)cc2)cc1` [Compound 6g, 3-(4-(4-Methoxyphenoxy)phenyl)-5-((2-nitro-1H-imidazol-1-yl)methyl)isoxazole], the half-maximal cytotoxic concentration (CC50) at 72 h in “Cytotoxicity assay (MTT)” is > 100 µM. Moreover, the “SI, selectivity index: CC50” value in series [1] is on record as >155.3. The IC50 in series [1] (setting [3]) was 0.64 ± 0.05 µM.

On to `COc1ccc(Oc2ccc(-c3cc(Cn4ccnc4[N+](=O)[O-])on3)cc2F)cc1` [Compound 6n, 3-(3-Fluoro-4-(4-methoxyphenoxy)phenyl)-5-((2-nitro-1H-imidazol-1-yl)methyl)isoxazole], for which the CC50 at 72 h in the series “Cytotoxicity assay (MTT)” was > 100 µM. Moreover, the “SI, selectivity index: CC50” value in series [1] is >28.2. Moreover, in series [1] (setting [3]), the IC50 amounted to 3.54 ± 0.21 µM. The “fold less activity than 6g” value in series [1] (setting [4]) worked out at 5.5 fold.

Take `O=[N+]([O-])c1nccn1Cc1cc(-c2ccc(Oc3ccc(Cl)c(Cl)c3)cc2)no1` [Compound 6d, 3-(4-(3,4-Dichlorophenoxy)phenyl)-5-((2-nitro-1H-imidazol-1-yl)methyl)isoxazole]: the half-maximal cytotoxic concentration (CC50) at 72 h in “Cytotoxicity assay (MTT)” is > 100 µM. In series [1], the “SI, selectivity index: CC50” value is on record as >35.9 and the “activity category (active / moderately active / inactive)” value is “active”. Further, the IC50 in series [1] (setting [3]) turned out to be 2.79 ± 0.93 µM.

For `O=[N+]([O-])c1nccn1Cc1cc(-c2ccc(Oc3ccc(F)cc3)c(F)c2)no1` [Compound 6i, 3-(3-Fluoro-4-(4-fluorophenoxy)phenyl)-5-((2-nitro-1H-imidazol-1-yl)methyl)isoxazole], the CC50 at 72 h in the series “Cytotoxicity assay (MTT)” was > 100 µM. Besides, the “SI, selectivity index: CC50” value in series [1] is given as >70.4. Also, the IC50 in series [1] (setting [3]) came to 1.42 ± 0.42 µM. Further, the “fold less active than 6b” value in series [1] (setting [4]) is 2.8 fold.

As for `O=[N+]([O-])c1nccn1Cc1cn(-c2ccc(Oc3ccccc3)cc2)nn1` [Compound 4b], the IC50 in series [2] was 6.6 µM.

As to `O=[N+]([O-])c1nccn1Cc1cc(-c2ccc(Sc3ccccc3)cc2)no1` [Compound 6o, 5-((2-Nitro-1H-imidazol-1-yl)methyl)-3-(4-(phenylthio)phenyl)isoxazole], the CC50 at 72 h in “Cytotoxicity assay (MTT)” is > 100 µM. Moreover, in series [1], the “SI, selectivity index: CC50” value is on record as >4.9 and the “activity category (active / moderately active / inactive)” value was “moderate activity”. The IC50 in series [1] (setting [3]) worked out at 20.6 ± 0.98 µM.
